Assays:
Type in all cases: cell-based
[1] = target: T1, organic cation transporter 1 (OCT1) (Homo sapiens, UniProt O15245)
T1 sequence (O15245 1-554): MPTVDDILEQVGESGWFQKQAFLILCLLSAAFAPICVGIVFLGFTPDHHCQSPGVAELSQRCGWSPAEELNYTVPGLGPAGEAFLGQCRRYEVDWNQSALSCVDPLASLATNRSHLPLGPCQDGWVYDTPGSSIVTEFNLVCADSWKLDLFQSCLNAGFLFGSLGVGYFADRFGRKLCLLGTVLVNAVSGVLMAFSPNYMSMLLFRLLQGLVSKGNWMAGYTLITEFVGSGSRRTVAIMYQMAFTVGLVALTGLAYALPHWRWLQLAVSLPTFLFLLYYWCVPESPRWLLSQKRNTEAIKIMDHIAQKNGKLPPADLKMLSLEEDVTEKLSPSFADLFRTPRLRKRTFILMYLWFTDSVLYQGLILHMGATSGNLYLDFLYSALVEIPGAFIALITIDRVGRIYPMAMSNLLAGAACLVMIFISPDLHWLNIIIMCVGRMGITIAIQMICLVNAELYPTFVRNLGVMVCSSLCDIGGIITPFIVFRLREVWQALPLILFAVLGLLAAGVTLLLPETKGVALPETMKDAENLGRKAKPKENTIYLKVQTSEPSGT

[2] = target: T1, organic cation transporter 1 (OCT1); test: inhibition of TEA uptake into OCT1-expressing cells at […]; conditions: read-out: % inhibition at 50 μmol/L
[3] = target: T1, organic cation transporter 1 (OCT1); test: inhibition of […]TEA uptake into HEK-OCT1 cells at […]

How did the “inhibition of [14C]TEA uptake into HEK-OCT1 cells” value [1] turn out when `COc1cc2nc(N3CCN(C(=O)c4ccco4)CC3)nc(N)c2cc1OC` [prazosin] was run?
Its value is “OCT1-dependent TEA uptake was significantly reduced in the presence of the inhibitors prazosin and decynium22 (Fig. 4A)”.

For `Cc1ccc(NC(=O)c2ccc(CN3CCNCC3)cc2)cc1Nc1nccc(-c2cccnc2)n1` [N-desmethyl imatinib], which inhibition at 50 µM [2] is on record?
The inhibition at 50 µM was 90.7 ± 1%.

How did the “inhibition of [14C]TEA uptake into HEK-OCT1 cells at 5 μmol/L” value [3] turn out when `CCN1/C(=C/c2ccc3ccccc3[n+]2CC)C=Cc2ccccc21` [decynium22] was run?
Its value is “OCT1-dependent TEA uptake was significantly reduced in the presence of the inhibitors prazosin and decynium22 (Fig. 4A)”.

Source: publication PMC3932302 (Clinical cancer research : an official journal of the …, 2013)
